According to patent US20040063745A1, “2-amino-4-(pyridin-2-yl)-thiazole derivatives as transforming growth factor beta (tgf-beta) inhibitors” (priority 2001, published 2004):

Tested on: TAG-β signalling (PAI-1 promoter, HepG2 cells)
Experiment: Assay 1: PAI-1 promoter luciferase reporter assay in HepG2 cells exposed to TAG-β
Format: cell-based
Conditions: for IC50: Homo sapiens, HepG2
Protocol: The assay was performed in HepG2 cells stably transfected with the PAI-1 promoter (known to be a strong TAG-β responsive promoter) linked to a luciferase (firefly) reporter gene. The compounds were selected on their ability to inhibit luciferase activity in cells exposed to TAG-β. In addition cells were transfected with a second luciferase (Renilla) gene which was not driven by a TAG-β responsive promoter and was used as a toxicity control.
(96 well-)microplates are seeded, using a multidrop apparatus, with the stably transfected cell line at a concentration of 35000 cells per well in 200 μl of serum-containing medium. These plates are placed in a cell incubator.
18 to 24 hours later (Day 2), cell-incubation procedure is launched. Cells are incubated with TAG-β and a candidate compound (TAG-β inhibitor) at concentrations in the range 50 nM to 10 μM (final concentration of DMSO 1%). The final concentration of TAG-β(rhTGFβ-1) used in the test is 1 ng/mL. Cells are incubated with a candidate compound 15-30 mins prior to the addition of TAGβ. The final volume of the test reaction is 150 μl. Each well contains only one candidate compound and its effect on the PAI-1 promoter is monitored.
Columns 11 and 12 are employed as controls. Column 11 contains 8 wells in which the cells are incubated in the presence of TAGβ, without a candidate compound. Column 11 is used to determine the ‘reference TAG-β induced firefly luciferase value’ against which values measured in the test wells (to quantify inhibitory activity) may be compared. In wells A12 to D12, cells are grown in medium without TAG-β. The firefly luciferase values obtained from these positions are representive of the ‘basal firefly luciferase activity’. In wells E12 to H12, cells are incubated in the presence of TAG-β and 500 μM CPO (Cyclopentenone, Sigma), a cell toxic compound.
12 to 18 hours later (day 3), the luciferase quantification procedure is launched. The following reactions are performed using reagents obtained from a Dual Luciferase Assay Kit (Promega). Cells are washed and lysed with the addition of 10 μl of passive lysis buffer (Promega). Following agitation (15 to 30 mins), luciferase activities of the plates are read in a dual-injector luminometer (BMG lumistar). For this purpose, 50 μl of luciferase assay reagent and 50 μl of ‘Stop & Glo’ buffer are injected sequentially to quantify the activities of both luciferases. The mean Luciferase activity value obtained in wells A11 to H11 (Column 11, TAG-β only) is considered to represent 100% and values obtained in wells A12 to D12 (cells in medium alone) gives a basal level (0%). For each of the compounds tested, a concentration response curve is constructed from which an IC50 value can be determined graphically.

IC50 | Compound | firefly and renilla luciferase activities relative to column 11 (TAG-β only) (500 μM CPO with TAG-β, toxicity control wells E12 to H12)
– | O=C1C=CCC1 [CPO, Cyclopentenone, reference compound] | around 50%
≤ 5 µM | Nc1nc(-c2ccccn2)c(-c2ccc3ncccc3n2)s1 [Example 2, 5-([1,5]Naphthyridin-2-yl)4-pyridin-2-yl-1,3-thiazol-2-amine] | –
≤ 5 µM | Cc1cccc(-c2nc(N)sc2-c2ccc3ncccc3n2)n1 [Example 3, 4-(6-Methyl-pyridin-2-yl)-5-([1,5]naphthyridin-2-yl)-1,3-thiazol-2-amine] | –

Compound | IC50 | firefly and renilla luciferase activities relative to column 11 (TAG-β only) (500 μM CPO with TAG-β, toxicity control wells E12 to H12)
Nc1nc(-c2ccccn2)c(-c2ccnc3ccccc23)s1 [Example 1, 4-(Pyridin-2-yl)-5-quinolin-4-yl-1,3-thiazol-2-amine] | ≤ 5 µM | –
